Test results published in PMC7281206, “Cysteine Cathepsins Inhibition Affects Their Expression and Human Renal Cancer Cell Phenotype” (Cancers, 2020).
*: point of attachment. CH2F = FC*

Assays:
LAMP-1 in A498 cells = test: LAMP-1 protein expression (western blot, confocal microscopy), A498; format: cell-based, human; settings: 20 μM
Method: Figure 7 Effect of the peptides on LAMP-1 protein expression: (a) Western blotting analysis of LAMP-1 after treatment with PLVE and VLPE (20 μM) for 24, 48, and 72 h in 769-P cells. (b) Confocal microscopy evaluation of LAMP-1 expression after 48 and 72 h of treatment with PLVE and VLPE (20 μM) in 769-P cells. (c) Western blotting analysis of LAMP-1 after treatment with PLVE and VLPE (20 μM) for 24, 48, and 72 h in A498 cells. (d) Confocal microscopy evaluation of LAMP-1 expression after 48 and 72 h of treatment with PLVE and VLPE (20 μM) in A498 cells. Data are represented as mean ± SD of at least three replicates. Significance was calculated through one-way ANOVA followed by Dunnet’s test. * = p < 0.05, ** = p < 0.01, *** = p < 0.001. Cells were seeded in RPMI containing 10% FBS and cultured for 24 h. Next, 30 µM of inhibitors were added to the culture medium and incubated for 24, 48, and 72 h. Control cells were treated with 0.01% DMSO. At all time points the samples were lysed in 50 mM Tri-HCl (pH 8.0), 100 mM NaCl, 0.5% NP-40, 1% Triton X-100, 1× protease inhibitor cocktail (ThermoFisher, Waltham, MA, USA). The 50 µg of protein lysates were separated by electrophoresis on a 12% SDS-PAGE gel and transferred to the PFDF membranes. The expression of cysteine Cts, LAMP-1, E-cadherin, and SNAIL1 were identified by a reaction with specific primary antibodies (CtsB-Ab190077, Abcam, UK; CtsL-Ab95154, Abcam, UK; CtsW Ab191083; LAMP-1- Ab24170, Abcam, UK; SNAIL1 Ab216347, Abcam, UK and e-cadherin-612131, BD Sciences Franklin Lakes, NJ, USA) which were resuspended in 5% non-fat milk in PBST (all Cts 1:3000, LAMP-1, SNAIL1 and E-cadherin 1:1000) and incubated O/N. The next day, the membranes were washed three times with PBST and incubated for 1 h with secondary antibodies (P-GAR Iss (Goat pAb to rabbit IgG (HRP), Abcam, UK or Rabbit Ab to mouse, Abcam, UK; both 1:5000) in 5% non-fat milk in PBST. After an additional wash (three times with PBS), reactive bands were detected by chemiluminescence (Bio-Rad, Irvine, CA, USA). As a loading control, the membranes were incubated with a polyclonal anti-tubulin antibody (1:5000; Ab52866, Abcam, UK) identically. The cells were treated for 48 and 72 h, then were fixed in 4% PFA/PBS for 15 min and permeabilized in 0.25% Triton®X-100 for 10 min. After blocking the non-specific sites in 2% BSA/PBS-T, the immunofluorescence was performed overnight with primary antibody anti-LAMP-1 (1:100, Abcam, Eugene, OR, USA) incubation, followed by incubation with the appropriate fluorophore-labeled secondary antibody Donkey anti-Rabbit IgG (H+L) ReadyProbes™, Alexa Fluor 488 (1:500; ThermoFisher, USA). […]

E-cadherin in A498 cells = test: E-cadherin protein expression (western blot), A498; format: cell-based, human; settings: first 48 h
Method: These properties could be the result of the modulation of the effectors controlling EMT, as previously shown in other tumor models. To test this hypothesis, the cells were treated with the inhibitors for 24, 48, and 72 h by changing the media every day, and they were tested for E-cadherin and SNAIL1 expression (Figure 6; detail information of western blots can be seen in Supplementary Figure S7). Figure 6 Effects of the peptides on E-cadherin and SNAIL1 protein expression: (a,b) protein expression of E-cadherin and SNAIL1 in 769-P and (c,d) A498 cells after 24, 48, and 72 h of treatment with the peptides. Data are represented as mean ± SD of at least three replicates. Significance was calculated through one-way ANOVA, followed by Dunnet’s test. Cells were seeded in RPMI containing 10% FBS and cultured for 24 h. Next, 30 µM of inhibitors were added to the culture medium and incubated for 24, 48, and 72 h. Control cells were treated with 0.01% DMSO. At all time points the samples were lysed in 50 mM Tri-HCl (pH 8.0), 100 mM NaCl, 0.5% NP-40, 1% Triton X-100, 1× protease inhibitor cocktail (ThermoFisher, Waltham, MA, USA). The 50 µg of protein lysates were separated by electrophoresis on a 12% SDS-PAGE gel and transferred to the PFDF membranes. […] After an additional wash (three times with PBS), reactive bands were detected by chemiluminescence (Bio-Rad, Irvine, CA, USA). […]

Substance	LAMP-1 protein expression (LAMP-1 in A498 cells; 72 h)	LAMP-1 protein expression (LAMP-1 in A498 cells; first 48 h)	E-cadherin protein expression (E-cadherin in A498 cells)
Ac-VLPE-CH2F [Ac-VLPE-FMK]	substantial recovery at 72 h, reaching values slightly higher than CTRL levels	significantly affected during the first 48 h	increased the protein expression of E-cadherin in the first 48 h in both the cell lines
Ac-PLVE-CH2F [Ac-PLVE-FMK]	substantial recovery at 72 h, reaching values slightly higher than CTRL levels	significantly affected during the first 48 h	increased the protein expression of E-cadherin in the first 48 h in both the cell lines
